# Where “and” joins values, the source holds several entries; their conditions need not be identical. Equal entries are not always repeated. Inconclusive results and toxic doses are left out.
# Tested on: BDF1 mice, L1210 6-MP/6-TG resistant leukemia ip, survival T/C
# Assay: NCI In Vivo Anticancer Drug Screen. Data for tumor model L1210 Leukemia resistant to 6-MP and 6-Thioguanine; NSC 755, NSC 752 (intraperitoneal) in B6D2F1 (BDF1) mice
# Conditions: endpoint: mean survival time, higher = longer survival
# Procedure: The antitumor activity of compounds was measured in mice bearing transplantable tumors. Survival or tumor size were measured and the results are expressed as the measurement made in the treated group (T) divided by the measurement made in the vehicle treated control group (C). The tumor model used in this assay is L1210 Leukemia resistant to 6-MP and 6-Thioguanine; NSC 755, NSC 752 (intraperitoneal) in B6D2F1 (BDF1) mice
# [1] = dose: 6.0 mg/kg/injection, schedule: Q01DX Z (ip), vehicle: carboxymethylcellulose (CMC)
# [2] = dose: 50.0 mg/kg/injection, schedule: Q01DX Z (ip), vehicle: saline
# [3] = dose: 125.0 mg/kg/injection, schedule: Q01DX Z (ip), vehicle: carboxymethylcellulose (CMC)
compound,measurement,setting,value
Clc1ccc(C(c2ccccc2Cl)C(Cl)Cl)cc1 (centres undefined),T/C,"dose: 23.0 mg/kg/injection, schedule: Q01DX Z (sc), vehicle: steriod suspending solution",94 % of control
same,T/C,"dose: 46.0 mg/kg/injection, schedule: Q01DX Z (sc), vehicle: steriod suspending solution",97 % of control
same,T/C,"dose: 93.0 mg/kg/injection, schedule: Q01DX Z (sc), vehicle: steriod suspending solution",103 % of control
same,T/C,"dose: 187.0 mg/kg/injection, schedule: Q01DX Z (sc), vehicle: steriod suspending solution",101 % of control
same,T/C,"dose: 375.0 mg/kg/injection, schedule: Q01DX Z (sc), vehicle: steriod suspending solution",104 % of control
same,T/C,"dose: 500.0 mg/kg/injection, schedule: Q01DX Z (sc), vehicle: steriod suspending solution",100 % of control
same,T/C,"dose: 750.0 mg/kg/injection, schedule: Q01DX Z (sc), vehicle: steriod suspending solution",96 % of control
same,T/C,"dose: 1000.0 mg/kg/injection, schedule: Q01DX Z (sc), vehicle: steriod suspending solution",98 % of control
CSc1ncnc2c1ncn2C1CC(O)C(CO)O1 (centres undefined),T/C,"dose: 32.0 mg/kg/injection, schedule: Q## X032 (ip), vehicle: saline",105 % of control
same,T/C,"dose: 48.0 mg/kg/injection, schedule: Q## X032 (ip), vehicle: saline",96 % of control
same,T/C,"dose: 72.0 mg/kg/injection, schedule: Q## X032 (ip), vehicle: saline",107 % of control
O[C@H](CN1CC1)[C@@H](O)CN1CC1,T/C,"dose: 0.25 mg/kg/injection, schedule: Q01DX Z (ip), vehicle: saline",253 % of control
same,T/C,"dose: 1.0 mg/kg/injection, schedule: Q01DX Z (ip), vehicle: saline",91 % of control
same,T/C,"dose: 90.0 micrograms/kg/injection, schedule: Q01DX Z (ip), vehicle: saline",156 % of control
same,T/C,"dose: 180.0 micrograms/kg/injection, schedule: Q01DX Z (ip), vehicle: saline",121 % of control
same,T/C,"dose: 370.0 micrograms/kg/injection, schedule: Q01DX Z (ip), vehicle: saline",120 % of control
CN(C)[C@@H]1C(=O)C(C(=O)NCNc2nc3n[nH]nc3c(=O)[nH]2)=C(O)[C@@]2(O)C(=O)C3=C(O)c4c(O)cccc4[C@@](C)(O)[C@H]3C[C@@H]12,T/C,"dose: 50.0 mg/kg/injection, schedule: Q01DX009 (ip), vehicle: saline",100 % of control
same,T/C,"dose: 100.0 mg/kg/injection, schedule: Q01DX009 (ip), vehicle: saline",104 % of control
same,T/C,"dose: 200.0 mg/kg/injection, schedule: Q01DX009 (ip), vehicle: saline",100 % of control
same,T/C,"dose: 400.0 mg/kg/injection, schedule: Q01DX009 (ip), vehicle: saline",100 % of control
NS(=O)(=O)c1ncnc2nc[nH]c12,T/C,[1],122 % of control
same,T/C,"dose: 25.0 mg/kg/injection, schedule: Q01DX Z (ip), vehicle: saline",112 % of control
same,T/C,[2],96 % of control
O=C(Nc1ccc(C2=NCCN2)cc1)c1ccc(C(=O)Nc2ccc(C3=NCCN3)cc2)c(Cl)c1,T/C,"dose: 1.7 mg/kg/injection, schedule: Q01DX015 (ip), vehicle: carboxymethylcellulose (CMC)",110 % of control
same,T/C,"dose: 2.6 mg/kg/injection, schedule: Q01DX015 (ip), vehicle: carboxymethylcellulose (CMC)",107 % of control
same,T/C,"dose: 3.8 mg/kg/injection, schedule: Q01DX015 (ip), vehicle: carboxymethylcellulose (CMC)",97 % of control
same,T/C,"dose: 4.4 mg/kg/injection, schedule: Q01DX015 (ip), vehicle: carboxymethylcellulose (CMC)",121 % of control
same,T/C,"dose: 5.3 mg/kg/injection, schedule: Q01DX015 (ip), vehicle: carboxymethylcellulose (CMC)",89 % of control
same,T/C,"dose: 6.5 mg/kg/injection, schedule: Q01DX015 (ip), vehicle: carboxymethylcellulose (CMC)",253 % of control
same,T/C,"dose: 7.0 mg/kg/injection, schedule: Q01DX015 (ip), vehicle: carboxymethylcellulose (CMC)",108 % of control
same,T/C,"dose: 8.0 mg/kg/injection, schedule: Q01DX015 (ip), vehicle: carboxymethylcellulose (CMC)",122 % of control
same,T/C,"dose: 8.7 mg/kg/injection, schedule: Q01DX015 (ip), vehicle: carboxymethylcellulose (CMC)",157 % of control
same,T/C,"dose: 12.0 mg/kg/injection, schedule: Q01DX015 (ip), vehicle: carboxymethylcellulose (CMC)",90 % of control
same,T/C,"dose: 13.0 mg/kg/injection, schedule: Q02DX010 (ip), vehicle: carboxymethylcellulose (CMC)",191 % of control
same,T/C,"dose: 15.0 mg/kg/injection, schedule: Q01DX010 (ip), vehicle: carboxymethylcellulose (CMC)",170 % of control
same,T/C,"dose: 15.0 mg/kg/injection, schedule: Q01DX015 (ip), vehicle: carboxymethylcellulose (CMC)",168 % of control
same,T/C,"dose: 18.0 mg/kg/injection, schedule: Q01DX015 (ip), vehicle: carboxymethylcellulose (CMC)",108 % of control
same,T/C,"dose: 20.0 mg/kg/injection, schedule: Q01DX010 (ip), vehicle: carboxymethylcellulose (CMC)",181 % of control
same,T/C,"dose: 20.0 mg/kg/injection, schedule: Q01DX015 (ip), vehicle: carboxymethylcellulose (CMC)",166 % of control and 187 % of control
same,T/C,"dose: 22.5 mg/kg/injection, schedule: Q01DX015 (ip), vehicle: carboxymethylcellulose (CMC)",154 % of control
same,T/C,"dose: 26.0 mg/kg/injection, schedule: Q01DX015 (ip), vehicle: carboxymethylcellulose (CMC)",214 % of control
same,T/C,"dose: 27.0 mg/kg/injection, schedule: Q01DX015 (ip), vehicle: carboxymethylcellulose (CMC)",90 % of control
same,T/C,"dose: 30.0 mg/kg/injection, schedule: Q02DX010 (ip), vehicle: carboxymethylcellulose (CMC)",223 % of control
same,T/C,"dose: 45.0 mg/kg/injection, schedule: Q02DX010 (ip), vehicle: carboxymethylcellulose (CMC)",188 % of control
CSc1ncnc2nc[nH]c12,T/C,"dose: 30.0 mg/kg/injection, schedule: Q01DX015 (ip), vehicle: carboxymethylcellulose (CMC)",89 % of control
same,T/C,"dose: 31.0 mg/kg/injection, schedule: Q01DX Z (ip), vehicle: carboxymethylcellulose (CMC)",97 % of control
same,T/C,"dose: 45.0 mg/kg/injection, schedule: Q01DX015 (ip), vehicle: carboxymethylcellulose (CMC)",103 % of control
same,T/C,"dose: 60.0 mg/kg/injection, schedule: Q01DX015 (ip), vehicle: carboxymethylcellulose (CMC)",88 % of control
same,T/C,"dose: 62.5 mg/kg/injection, schedule: Q01DX Z (ip), vehicle: carboxymethylcellulose (CMC)",92 % of control
same,T/C,"dose: 75.0 mg/kg/injection, schedule: Q01DX015 (ip), vehicle: carboxymethylcellulose (CMC)",89 % of control
same,T/C,"dose: 90.0 mg/kg/injection, schedule: Q01DX015 (ip), vehicle: carboxymethylcellulose (CMC)",86 % of control
same,T/C,"dose: 120.0 mg/kg/injection, schedule: Q01DX001 (ip), vehicle: carboxymethylcellulose (CMC)",95 % of control and 104 % of control
same,T/C,[3],88 % of control
same,T/C,"dose: 180.0 mg/kg/injection, schedule: Q01DX001 (ip), vehicle: carboxymethylcellulose (CMC)",92 % of control
same,T/C,"dose: 270.0 mg/kg/injection, schedule: Q01DX001 (ip), vehicle: carboxymethylcellulose (CMC)",94 % of control
C[N+](C)(C)c1ncnc2nc[nH]c12,T/C,"dose: 11.25 mg/kg/injection, schedule: Q01DX Z (ip), vehicle: saline",101 % of control
same,T/C,"dose: 22.5 mg/kg/injection, schedule: Q01DX Z (ip), vehicle: saline",100 % of control
same,T/C,"dose: 45.0 mg/kg/injection, schedule: Q01DX Z (ip), vehicle: saline",102 % of control
same,T/C,[2],105 % of control
same,T/C,"dose: 90.0 mg/kg/injection, schedule: Q01DX Z (ip), vehicle: saline",94 % of control
same,T/C,"dose: 100.0 mg/kg/injection, schedule: Q01DX Z (ip), vehicle: saline",99 % of control
Nc1ncnc2c1ncn2C(C=O)OC(C=O)CO (centres undefined),T/C,"dose: 4.0 mg/kg/injection, schedule: Q01DX Z (ip), vehicle: carboxymethylcellulose (CMC)",97 % of control
same,T/C,[1],102 % of control
same,T/C,"dose: 8.0 mg/kg/injection, schedule: Q01DX Z (ip), vehicle: carboxymethylcellulose (CMC)",106 % of control
same,T/C,"dose: 12.0 mg/kg/injection, schedule: Q01DX015 (ip), vehicle: saline",170 % of control
same,T/C,"dose: 12.0 mg/kg/injection, schedule: Q01DX Z (ip), vehicle: saline",124 % of control
same,T/C,"dose: 13.0 mg/kg/injection, schedule: Q01DX015 (ip), vehicle: saline",171 % of control
same,T/C,"dose: 24.0 mg/kg/injection, schedule: Q01DX015 (ip), vehicle: saline",189 % of control
same,T/C,"dose: 48.0 mg/kg/injection, schedule: Q01DX015 (ip), vehicle: saline",111 % of control
same,T/C,[2],88 % of control
C=CCSc1ncnc2c1ncn2C1OC(CO)C(O)C1O (centres undefined),T/C,"dose: 5.0 mg/kg/injection, schedule: Q01DX015 (ip), vehicle: saline",112 % of control
same,T/C,"dose: 10.0 mg/kg/injection, schedule: Q01DX015 (ip), vehicle: saline",102 % of control
same,T/C,"dose: 20.0 mg/kg/injection, schedule: Q01DX015 (ip), vehicle: saline",100 % of control
same,T/C,"dose: 40.0 mg/kg/injection, schedule: Q01DX015 (ip), vehicle: saline",100 % of control
same,T/C,"dose: 50.0 mg/kg/injection, schedule: Q01DX015 (ip), vehicle: saline",105 % of control
same,T/C,"dose: 100.0 mg/kg/injection, schedule: Q01DX015 (ip), vehicle: saline",94 % of control
same,T/C,"dose: 200.0 mg/kg/injection, schedule: Q01DX015 (ip), vehicle: saline",90 % of control
CCn1cnc2c(SC3CCCC3)ncnc21,T/C,[3],98 % of control
same,T/C,"dose: 250.0 mg/kg/injection, schedule: Q01DX Z (ip), vehicle: carboxymethylcellulose (CMC)",98 % of control
